According to publication PMC9787607, “A Novel Protocol for the Synthesis of 1,2,4-Oxadiazoles Active against Trypanosomatids and Drug-Resistant Leukemia Cell Lines” (Tropical Medicine and Infectious Disease, 2022):
Structures can show the parent of a compound that is named as a salt.

Legend:
T. cruzi amastigotes = tested on: T. cruzi amastigotes; design: method as in PMID 22727447; conditions: cited from earlier work
Leishmania donovani = tested on: Leishmania donovani; design: method as in PMID 22217867; conditions: cited from earlier work
[1] = tested on: Trypanosoma brucei rhodesiense; design: method as in PMID 22217867; conditions: cited from earlier work
T. cruzi [2] = tested on: T. cruzi; design: method as in PMID 22217867; conditions: cited from earlier work
A375 = tested on: A375; design: method as in doi:10.1134/S1070363218050304; conditions: cited from earlier work
ACHN = tested on: ACHN; design: method as in doi:10.1134/S1070363218050304; conditions: cited from earlier work
MCF-7 = tested on: MCF-7; design: method as in doi:10.1134/S1070363218050304; conditions: cited from earlier work
T. cruzi [3] = tested on: T. cruzi; design: method as in PMID 23006639; conditions: cited from earlier work
T. cruzi trypomastigotes = tested on: T. cruzi trypomastigotes; design: method as in PMID 23006639; conditions: cited from earlier work
Leishmania amazonensis = tested on: Leishmania amazonensis; design: method as in PMID 19962891; conditions: cited from earlier work
FEPS (K562/DNR) [4] = experiment: MTT cytotoxicity to MDR CML cell line FEPS; format: cell-based, human; conditions: reference drugs, FEPS/K562, ratio of EC50 values from ref 64
Protocol: (§1) The CML cell lines K562, Lucena-1 (K562/VCR), and FEPS (K562/DNR) were cultured in RPMI-1640 medium supplemented with 25 mM HEPES and 2 g L^−1 sodium bicarbonate adjusted to pH 7.4 with NaOH, 100 U penicillin and […] streptomycin. All media were supplemented with 10% FBS. Dr. Vivian M. Rumjanek (Instituto de Bioquímica Médica, UFRJ, Brazil) kindly donated Lucena-1 and FEPS cells. Briefly, K562 cells were exposed to increasing concentrations of the chemotherapeutic drugs vincristine sulfate (VCR) and daunorubicin hydrochloride (DNR) (both from Sigma-Aldrich), as described previously. Lucena-1 (K562/VCR) and FEPS (K562/DNR) cells were cultured in the presence of either 60 nM VCR or 500 nM DNR to maintain the MDR phenotypes. For subcultures, cells were harvested every three days followed by washing with cold FBS, and a final concentration of 2 × 10^4 cells mL^−1 was maintained at 37 °C in 5% CO2.
(§2) Cell viability was determined by the 3-(4,5-dimethylthiazol-2-yl)-2,5-diphenyltetrazolium (MTT) colorimetric assay. CML cells (2 × 10^4 cells·mL^−1) were incubated for 72 h at 37 °C, followed by treatment with compounds at a range of concentrations (100–1 μM). Negative controls were prepared with 0.5% DMSO. An MTT salt solution was added to each well to a final concentration of 0.5 g·L^−1, and plates were incubated at 37 °C in 5% CO2 for 3 h. After centrifugation, 200 μL DMSO was added to dissolve the dark-blue formazan crystals formed by MTT reduction. Absorbance was measured on a microplate reader at 570 nm, which is directly proportional to formazan contents and indicative of living cells.
(§3) The percent cell or parasite viability was calculated by the formula: % viability = [(A − P)/(N − P)] × 100, A = absorbance of specific well, P = positive control, N = negative control. Determination of half-maximal effective concentrations (EC50), calculated by logarithmic regression, and significance analysis (p < 0.05), using ANOVA and Dunnett’s test, by GraphPad Prism 7.0 software. The results are expressed as the mean and standard deviation (SD) of three independent experiments.

K562 = tested on: K562; design: method as in PMID 32229586; conditions: reference drugs; cited from earlier work
FEPS (K562/DNR) [5] = tested on: FEPS (K562/DNR); design: method as in PMID 32229586; conditions: reference drugs; cited from earlier work
Lucena-1 (K562/VCR) [6] = tested on: Lucena-1 (K562/VCR); design: method as in PMID 32229586; conditions: reference drugs; cited from earlier work
Lucena-1 (K562/VCR) [7] = experiment: cells; format: cell-based, human; conditions: reference drugs, Lucena-1/K562, ratio of EC50 values from ref 64
Protocol: as §1, §2, §3

T. brucei = tested on: T. brucei; design: method as in PMID 15142541; conditions: cited from earlier work
Vero = tested on: Vero; design: method as in PMID 15142541; conditions: cited from earlier work
PC3 = tested on: PC3; design: method as in PMID 15142541; conditions: cited from earlier work
L. donovani = tested on: L. donovani; design: method as in PMID 15142541; conditions: cited from earlier work
HL-60/VCR = tested on: HL-60/VCR; design: method as in PMID 20411988; conditions: drug-resistant promyelocytic leukemia; cited from earlier work
HL-60 = tested on: HL-60; design: method as in PMID 20411988; conditions: sensitive promyelocytic leukemia; cited from earlier work

O=C(/C=C/c1ccc2c(c1)OCO2)c1cccs1 [Compound 4]
IC50 (T. cruzi amastigotes): 5.6 µM

Cc1ccc(-c2noc(CN3N=NC4C(=O)N(c5ccccc5)C(=O)C43)n2)cc1 (centres unmarked) [Compound 7]
IC50 (Leishmania donovani): 5.7 µM | IC50 [1]: 21.6 µM | IC50 (T. cruzi [2]): 100 µM

COc1cc(-c2nc(-c3c(Cl)nc4sc(C)nn34)no2)cc(OC)c1OC [Compound 6]
IC50 (A375): 1.22 µM | IC50 (ACHN): 0.11 µM | IC50 (MCF-7): 0.23 µM

O=C(NN=Cc1ccc2c(c1)OCO2)c1nc(-c2ccc(Cl)cc2)no1 [conjugate 9]
effect on parasitemia in infected mice (T. cruzi [3]): reduce parasitemia | IC50 (T. cruzi trypomastigotes): 3.5 µM

C=COc1cc(OC)c(C(=O)/C=C/c2ccncc2)c(OC=C)c1 [Compound 3]
IC50 (Leishmania amazonensis): 0.6 µM

CC[C@]1(O)C[C@H]2CN(CCc3c([nH]c4ccccc34)[C@@](C(=O)OC)(c3cc4c(cc3OC)N(C=O)[C@H]3[C@@](O)(C(=O)OC)[C@H](OC(C)=O)[C@]5(CC)C=CCN6CC[C@]43[C@@H]65)C2)C1 [VCR, vincristine sulfate]
RR (relative resistance) FEPS (FEPS (K562/DNR) [4]): 19.4 | EC50 (K562): 0.054 ± 0.005 µM | EC50 (FEPS (K562/DNR) [5]): 1.05 ± 0.07 µM | EC50 (Lucena-1 (K562/VCR) [6]): 0.85 ± 0.12 µM | RR (relative resistance) Lucena-1 (Lucena-1 (K562/VCR) [7]): 15.7

N#CSCc1nc(-c2ccc(Cl)c(Cl)c2)no1 [Compound 8]
IC50 (T. brucei): 5.2 µM | IC50 (Vero): 70 µM | IC50 (PC3): 3.9 µM | IC50 (L. donovani): 2.3 µM

COc1cccc2c1C(=O)c1c(O)c3c(c(O)c1C2=O)C[C@@](O)(C(C)=O)C[C@@H]3O[C@H]1C[C@H](N)[C@H](O)[C@H](C)O1 [DNR, daunorubicin hydrochloride]
RR (relative resistance) FEPS (FEPS (K562/DNR) [4]): 78.6 | EC50 (K562): 0.082 ± 0.001 µM | EC50 (FEPS (K562/DNR) [5]): 6.45 ± 1.27 µM | EC50 (Lucena-1 (K562/VCR) [6]): 3.06 ± 0.87 µM | RR (relative resistance) Lucena-1 (Lucena-1 (K562/VCR) [7]): 37.3

COc1cccc(/C=C/C(=O)Nc2cc(OC)c(OC)c(OC)c2)c1 [Compound 2]
IC50 (HL-60/VCR): 11.6 µM | IC50 (HL-60): 3.1 µM
